Values quoted from earlier work, collected in patent publication US10194693B2, “Aerosol generating device” (FONTEM HOLDINGS 1 B.V., priority 2013, dated 2019).

For `CN1CCCC1c1cccnc1` (centres unmarked) [nicotine], the “time to peak increments of plasma nicotine concentration” value (smoking a cigarette) is given as at most 10 min and the “peak increments of plasma nicotine concentration” value (smoking a single cigarette) is given as 5 to 30 ng/mL.
